Measurements as given in paper PMC8319832, “Fine-Tuning of Alkaline Residues on the Hydrophilic Face Provides a Non-toxic Cationic α-Helical Antimicrobial Peptide Against Antibiotic-Resistant ESKAPE Pathogens” (Frontiers in Microbiology, 2021).
Where a SMILES comes first, the peptide text is derived from it.

What was measured:
S. aureus 4188 = assay: MIC, broth dilution; assay type: cell-based, Staphylococcus aureus; conditions: CLSI broth dilution, MHB, 37°C, 20 h, OD630, at least three repeats; clinical isolate, penicillin-resistant
From the text: (§1) All experiments were repeated at least three times.

S. aureus 9124 = assay: MIC, broth dilution; assay type: cell-based, Staphylococcus aureus; conditions: CLSI broth dilution, MHB, 37°C, 20 h, OD630, at least three repeats; clinical isolate, MRSA
From the text: as §1

S. aureus 1176 = assay: MIC, broth dilution; assay type: cell-based, Staphylococcus aureus; conditions: CLSI broth dilution, MHB, 37°C, 20 h, OD630, at least three repeats; clinical isolate
From the text: as §1

S. aureus ATCC 25923 = assay: MIC, broth dilution; assay type: cell-based, Staphylococcus aureus; conditions: CLSI broth dilution, MHB, 37°C, 20 h, OD630, at least three repeats; standard strain
From the text: as §1

E. faecalis ATCC 29212 = assay: MIC, broth dilution; assay type: cell-based
Protocol: as §1
(§2) To study the influence of physiological ions on the antimicrobial activities of the peptides, The MICs of the peptides were also determined against the standard bacterial strains cultured in MHB containing various salts at their physiological concentrations (150 mM NaCl, 4.5 mM KCl, 1 mM MgCl2, 2 mM CaCl2, 6 μM NH4HCO3, and 4 μM FeCl3) ([Ma et al., 2016]).

S. aureus ATCC29213 = assay: MIC, broth dilution; assay type: cell-based, Staphylococcus aureus
Protocol: as §1, §2

[1] = test system: human red blood cells (hRBCs); assay: Hemolytic activity determination; assay type: cell-based; conditions: peptide 100 μg ml^–1; hRBCs in 0.9% sodium chloride, 37°C, 1 h, OD540, 1% Triton X-100 = 100%; three independent experiments
Protocol: Fresh human red blood cells (hRBCs) were collected in a sterile borosilicate glass tube covered with sodium citrate as the anticoagulating agent. […] Two-fold dilutions of the peptides were prepared in 0.9% sodium chloride to 100 μl and mixed with equal volumn of hRBC suspension to final peptide concentrations ranging from 12.5 to 200 μg ml^–1. After co-incubation at 37°C for 1 h, the samples were centrifuged (2,000 × g, 4°C, 20 min), and the supernatant (100 μl) was taken for optical density (OD540) measurements (Asample). The hRBCs assayed with 0.9% sodium chloride (Ablank) or 1% Triton X-100 (Apositive) were applied as 0% and 100% hemolysis, respectively. Three independent experiments were performed and the percent hemolysis was calculated according to the following equation ([Yin et al., 2012]; [Li et al., 2016]):
Hemolysis(%)=100*(Asample-Ablank)/(Apositive-Ablank)

A. baumannii ATCC 19606 = assay: MIC, broth dilution; assay type: cell-based, Acinetobacter baumannii
Protocol: as §1, §2

[2] = CLSI broth dilution, MHB, 37°C, 20 h, OD630, at least three repeats, standard strain
[3] = salt sensitivity test, MHB, control without addition of salt ions

CC[C@H](C)[C@H](NC(=O)[C@H](CCCCN)NC(=O)[C@H](CCCCN)NC(=O)[C@@H](NC(=O)[C@@H](N)Cc1ccccc1)[C@@H](C)CC)C(=O)N[C@@H](C)C(=O)N[C@@H](CCCCN)C(=O)N[C@@H](CC(C)C)C(=O)N[C@@H](CC(C)C)C(=O)N[C@@H](CCCCN)C(=O)N[C@@H](CCCCN)C(=O)N[C@H](C(=O)N[C@@H](Cc1ccccc1)C(N)=O)[C@@H](C)CC [BmKn2-7K] (H-FIKKIAKLLKKIF-NH2)
2.5 µg/mL: MIC (S. aureus 4188) | MIC (S. aureus 9124) | MIC (S. aureus 1176) | MIC (A. baumannii ATCC 19606; [2]) | MIC (A. baumannii ATCC 19606; MHB with 1 mM MgCl2) | MIC (A. baumannii ATCC 19606; MHB with 2 mM CaCl2) | MIC (A. baumannii ATCC 19606; MHB with 150 mM NaCl) | MIC (A. baumannii ATCC 19606; [3])
12.2%: percent hRBC hemolysis [1]
10 µg/mL: MIC (E. faecalis ATCC 29212; MHB with 2 mM CaCl2) | MIC (E. faecalis ATCC 29212; MHB with 150 mM NaCl)
20 µg/mL: MIC (E. faecalis ATCC 29212; MHB with 4 μM FeCl3) | MIC (E. faecalis ATCC 29212; MHB with 6 μM NH4HCO3) | MIC (E. faecalis ATCC 29212; MHB with 1 mM MgCl2) | MIC (E. faecalis ATCC 29212; MHB with 4.5 mM KCl)
5 µg/mL: MIC (S. aureus ATCC 25923) | MIC (E. faecalis ATCC 29212; [2]) | MIC (E. faecalis ATCC 29212; [3]) | MIC (S. aureus ATCC29213; MHB with 4 μM FeCl3) | MIC (S. aureus ATCC29213; MHB with 6 μM NH4HCO3) | MIC (S. aureus ATCC29213; MHB with 1 mM MgCl2) | MIC (S. aureus ATCC29213; MHB with 2 mM CaCl2) | MIC (S. aureus ATCC29213; MHB with 4.5 mM KCl) | MIC (S. aureus ATCC29213; MHB with 150 mM NaCl) | MIC (S. aureus ATCC29213; [3]) | MIC (A. baumannii ATCC 19606; MHB with 4 μM FeCl3) | MIC (A. baumannii ATCC 19606; MHB with 6 μM NH4HCO3) | MIC (A. baumannii ATCC 19606; MHB with 4.5 mM KCl)
